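The compound was tested at five concentrations on cells cultured in 96-well plates, with a 48-hour exposure period. Definition used: TGI = concentration required for complete inhibition of growth.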
How the values were obtained:
Assay in all cases: NCI tumour cell line growth inhibition, 48 h
HCC-2998 colon = system: HCC-2998 colon
KM12 colon = system: KM12 colon
TK-10 renal = system: TK-10 renal
NCI-H23 lung = system: NCI-H23 lung
SK-MEL-28 melanoma = system: SK-MEL-28 melanoma
EKVX NSCLC = system: EKVX NSCLC
A498 renal = system: A498 renal
PC-3 prostate = system: PC-3 prostate
CCRF-CEM leukemia = system: CCRF-CEM leukemia
SR leukemia = system: SR leukemia
OVCAR-5 ovarian = system: OVCAR-5 ovarian
ACHN renal = system: ACHN renal
UACC-62 melanoma = system: UACC-62 melanoma
HT29 colon = system: HT29 colon
HL-60(TB) leukemia = system: HL-60(TB) leukemia
K-562 leukemia = system: K-562 leukemia
RXF 393 renal = system: RXF 393 renal
MDA-N = system: MDA-N

| Compound | TGI (HCC-2998 colon) [µM] | TGI (KM12 colon) [µM] | TGI (TK-10 renal) [µM] | TGI (NCI-H23 lung) [µM] | TGI (SK-MEL-28 melanoma) [µM] | TGI (EKVX NSCLC) [µM] | TGI (A498 renal) [µM] | TGI (PC-3 prostate) [µM] | TGI (CCRF-CEM leukemia) [µM] | TGI (SR leukemia) [µM] | TGI (OVCAR-5 ovarian) [µM] | TGI (ACHN renal) [µM] | TGI (UACC-62 melanoma) [µM] | TGI (HT29 colon) [µM] | TGI (HL-60(TB) leukemia) [µM] | TGI (K-562 leukemia) [µM] | TGI (RXF 393 renal) [µM] | TGI (MDA-N) [µM] |
| --- | --- | --- | --- | --- | --- | --- | --- | --- | --- | --- | --- | --- | --- | --- | --- | --- | --- | --- |
| NC(=O)CN1CC(C2=C(O)CN(CC(N)=O)C2=O)=CC1=O | > 100 | > 100 | > 100 | > 100 | > 100 | > 100 | > 100 | > 100 | > 100 | > 100 | > 100 | > 100 | > 100 | > 100 | > 100 | > 100 |  |  |
| Cc1ccc(S(=O)(=O)N2CCCSCCSCCCN(S(=O)(=O)c3ccc(C)cc3)CC2)cc1 | > 100 | > 100 | > 100 | > 100 | > 100 | > 100 | > 100 |  |  |  | > 100 | > 100 | > 100 | > 100 |  |  | > 100 | > 100 |
| C/C(=N\NC(=O)C[N+](C)(C)C)c1sc(-c2cccnc2)nc1C | > 100 | > 100 | > 100 | > 100 | > 100 | > 100 |  |  | > 100 |  | > 100 | > 100 | > 100 | > 100 | > 100 | > 100 | > 100 |  |
| CCOC(=O)/C(=C\NC(C)(C)C)c1nc2ccccc2[nH]1 |  | 44.1 | 47.6 | 35.9 | 34.6 | 34.5 | 57.3 |  | 39.5 | 28.3 | 55.9 | 40.9 | 30.1 | 42.6 | 34 |  | 59.6 | 52.8 |
| COC(=O)c1cc(OS(=O)(=O)C(F)(F)F)c(=O)n2c1CCCC2 |  | > 100 | > 100 | > 100 | > 100 | > 100 | > 100 | > 100 | > 100 |  | > 100 | > 100 | > 100 | > 100 | > 100 |  | > 100 | > 100 |
| N#Cc1ccc(/C=C(/C(=O)c2ccccc2)c2ccccc2)cc1 | 30.6 | 10.1 | 57 | 35.2 | 32.7 | 42.9 | 40 |  | > 29.1 | 8.4 | 35.4 | 33.1 | 31.2 | 22.1 | 9.81 | > 24.7 | 39.9 |  |
| CN(C)CCNCc1ccc2c(-c3ccccc3)nc3cc(Cl)c(Cl)cc3n12 | 5.83 | 24.7 | 22.2 | 28.9 | 14.1 | 30.2 | 29.9 | 27.3 | 29.4 |  | 26.1 | 14.8 | 17.7 | 16.7 | 11.6 | 31.9 | 10 | 23.4 |
| COc1ccc2c3c([nH]c(=O)c2c1C(=O)O)-c1ccccc1CC3 | > 100 | > 100 | > 100 | > 100 | > 100 | > 100 | > 100 |  | > 100 | > 100 | > 100 | > 100 |  | > 100 | > 100 | > 100 | > 100 |  |
| CC(C)(C)C1CCC2c3c([nH]c4ncccc34)C3C(=O)N(c4ccccc4)C(=O)C3C2C1 (stereo not given) | > 100 | > 100 | > 100 | > 100 | > 100 | > 100 |  |  | > 100 | > 100 | > 100 | > 100 | > 100 | > 100 | > 100 | > 100 | > 100 |  |
| CCOC(=O)C(C)Sc1nnc(COc2ccc(Cl)cc2)n1-c1ccccc1 (stereo not given) | 49 | 41.9 | 69.9 | 42.7 | 49.2 | 83.5 |  |  | 34 |  | 94.8 | 31.6 | 31.8 | 31.9 | 39.7 | 49.9 | 41.7 |  |
| CCOC(=O)Nc1sc2c(c1C#N)CC(C)CC2 (stereo not given) | 11.2 | 36 | 98 | > 100 | > 100 | > 100 |  | 41.8 |  | 18.4 | 99.1 | 88.5 | 96.4 | 10.9 | 13.1 | > 100 | 70.2 |  |
| CCO/S(=N/S(=O)(=O)c1ccccc1)c1ccccc1[N+](=O)[O-] (stereo not given) | > 100 | > 100 |  | > 100 | > 100 | > 100 |  |  | > 100 | > 100 | > 100 |  | > 100 | > 100 |  | > 100 |  |  |
| O=C1c2c(ccc3c2CCC3)CC1Cc1ccc2c(c1)CCC2 (stereo not given) | > 100 | > 100 | > 100 | 85.9 | > 100 | > 100 | > 100 |  | 37.8 | 30.9 | > 100 | > 100 | 42.7 | 60.9 | 21.7 | 80.1 | 69.1 | > 100 |
| C=C1[C@H]2O[C@H]2[C@@H](OC(C)=O)[C@@]2(C)[C@@H](OC(C)=O)C[C@@H](OC(=O)CCC)[C@@](C)(O)[C@@H]2[C@@H](OC(C)=O)[C@]2(O)[C@@H](C)C(=O)O[C@H]2[C@H]1Cl | > 100 | > 100 | > 100 | > 100 | > 100 | > 100 | > 100 | > 100 |  |  | > 100 | > 100 | > 100 | > 100 | > 100 | > 100 | > 100 | > 100 |
| COC1=N[C@H](C(C)C)C(OC)=N[C@H]1Cc1ccc(C[C@@H]2N=C(OC)[C@@H](C(C)C)N=C2OC)s1 | > 100 | > 100 | > 100 | 72.9 | > 100 | > 100 |  | 69.2 | 50.3 | 51 | 77.9 | > 100 | > 100 | 96.3 |  | > 100 |  | > 100 |
| Cc1ccc(S(=O)(=O)NC(=O)Nc2cccc(S(N)(=O)=O)c2)cc1 | > 100 | > 100 | > 100 | > 100 | > 100 | > 100 | > 100 | > 100 |  | > 100 | > 100 | > 100 | > 100 | > 100 | > 100 | > 100 | > 100 |  |
| COCCOC(=O)NCn1cc(-c2ccccc2)nn1 | > 100 | > 100 | > 100 | > 100 | > 100 | > 100 |  | > 100 | > 100 | > 100 | > 100 | > 100 |  | > 100 | > 100 | > 100 |  |  |
| O=c1[nH]c2cc([N+](=O)[O-])ccc2nc1/C(=N/Nc1ccccc1)C(O)c1ccco1 (stereo not given) | > 100 | > 100 |  |  |  | > 100 | > 100 |  | > 100 | > 100 |  | > 100 | > 100 | > 100 | > 100 | > 100 | > 100 |  |
| CN(C)C1(N(C)C)Oc2c(c(=O)n(C)c(=O)n2C)C(c2ccc(C(F)(F)F)cc2)C1(F)F (stereo not given) | > 100 | > 100 | > 100 | > 100 | > 100 | > 100 | > 100 | > 100 | > 100 |  | > 100 | > 100 | > 100 |  |  | > 100 | > 100 |  |
| CC(C)=NNc1snnc1C(N)=O | > 100 | > 100 | > 100 | > 100 | > 100 | > 100 | > 100 | > 100 | > 100 |  | > 100 | > 100 | > 100 | > 100 | > 100 | > 100 | > 100 | > 100 |
| N#C/C(c1nc2ccccc2[nH]1)=c1\s/c(=C(/N)O)c(=N)n1-c1ccccc1 |  |  | > 100 | > 100 | > 100 | > 100 | > 100 |  | > 100 |  | > 100 | > 100 | > 100 | > 100 | > 100 | > 100 |  |  |
| COc1cc2c(oc(=O)c3c4occc4cc(OC)c23)c2cccc(OCc3ccccc3)c12 | > 100 | > 100 | > 100 | > 100 | > 100 | > 100 | 83.4 |  | > 100 | > 100 | > 100 | > 100 | > 100 | > 100 | > 100 | > 100 | > 100 |  |
| Cc1ccc(S(=O)(=O)N/N=C(\c2nc3ccc([N+](=O)[O-])cc3[nH]c2=O)C(O)c2ccc([N+](=O)[O-])cc2)cc1 (stereo not given) | > 100 |  | > 100 | > 100 | > 100 | > 100 | > 100 |  | > 100 |  | > 100 | > 100 | > 100 |  | 95.6 | > 100 | > 100 |  |
| CCC(=O)NI1OC(=O)c2ccccc21 | > 100 | > 100 | > 100 | > 100 | > 100 | > 100 | > 100 | > 100 | > 100 | > 100 | > 100 | > 100 | > 100 | > 100 | > 100 | > 100 | > 100 |  |
| CC(C)(C)c1cc2c(c(C(C)(C)C)c1O)CC(=O)O2 | 96.7 | 64.6 | > 100 | 59.3 | > 100 | > 100 | 94.7 | 76.1 | 73.5 |  | > 100 | 55.5 | 77.5 | > 100 | 86.8 | > 100 | 54.5 | > 100 |
| O=C1CNC(=O)/C(=C/c2c[nH]c3ccccc23)N1 | > 100 | > 100 | > 100 | > 100 | > 100 | > 100 | > 100 | > 100 |  |  | > 100 | > 100 | > 100 | > 100 | > 100 | > 100 | > 100 | > 100 |
| O=C(c1ccco1)N(C(=S)N1CCN(c2ccccc2)CC1)C1CCCCC1 |  | > 100 | > 100 | > 100 |  |  |  |  | > 100 | > 100 | > 100 | > 100 | > 100 | > 100 | > 100 | > 100 | > 100 |  |
| COC(=O)[C@H](Cc1ccccc1)NC(=O)N(CCC#N)CCCCN(CCC#N)C(=O)N[C@@H](Cc1ccccc1)C(=O)OC | > 100 | > 100 | > 100 | > 100 | > 100 | > 100 | > 100 | > 100 |  |  | > 100 | > 100 | > 100 |  |  | > 100 | > 100 | > 100 |
| O=C(O)[C@@H]1OCCOCCO[C@@H](C(=O)O)[C@H](C(=O)O)OCCOCCO[C@H]1C(=O)O | > 100 | > 100 | > 100 | > 100 | > 100 | > 100 | > 100 |  | > 73.6 | 40 | > 100 | > 100 | > 100 | > 100 | 38.4 | > 100 | > 24.9 |  |

— PubChem BioAssay (NCI)
